Laboratory results: PubChem BioAssay AID248 (DTP/NCI, 2004)
Values joined by “and” are separate entries in the source; they are usually repeats but may differ in a detail not shown here. Identical values can stand only once. Inconclusive results and toxic doses are left out.

Test system: L1210 leukemia ip in BDF1 mice, survival T/C
Assay: NCI In Vivo Anticancer Drug Screen. Data for tumor model L1210 Leukemia (intraperitoneal) in B6D2F1 (BDF1) mice
Conditions: endpoint: mean survival time, higher = longer survival
Outline: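 Tumor cells were implanted, animals were treated, and survival was followed. The result divides the treated measurement by the vehicle-control measurement.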

[1] = dose: 100.0 mg/kg/injection, schedule: Q01DX009 (ip), vehicle: saline
[2] = dose: 100.0 mg/kg/injection, schedule: Q04DX003 (ip), vehicle: saline with Tween-80
[3] = dose: 200.0 mg/kg/injection, schedule: Q01DX009 (ip), vehicle: saline
[4] = dose: 200.0 mg/kg/injection, schedule: Q04DX003 (ip), vehicle: saline with Tween-80
[5] = dose: 400.0 mg/kg/injection, schedule: Q01DX009 (ip), vehicle: saline
[6] = dose: 400.0 mg/kg/injection, schedule: Q04DX003 (ip), vehicle: saline with Tween-80
[7] = dose: 100.0 mg/kg/injection, schedule: Q04DX003 (ip), vehicle: saline
[8] = dose: 100.0 mg/kg/injection, schedule: Q01DX009 (ip), vehicle: Klucel (hydroxypropylcellulose) (HPC)
[9] = dose: 200.0 mg/kg/injection, schedule: Q01DX009 (ip), vehicle: Klucel (hydroxypropylcellulose) (HPC)
[10] = dose: 400.0 mg/kg/injection, schedule: Q01DX009 (ip), vehicle: Klucel (hydroxypropylcellulose) (HPC)
[11] = dose: 100.0 mg/kg/injection, schedule: Q01DX001 (ip), vehicle: carboxymethylcellulose (CMC)
[12] = dose: 400.0 mg/kg/injection, schedule: Q01DX001 (ip), vehicle: carboxymethylcellulose (CMC)
[13] = dose: 100.0 mg/kg/injection, schedule: Q04DX002 (ip), vehicle: saline with Tween-80
[14] = dose: 200.0 mg/kg/injection, schedule: Q04DX002 (ip), vehicle: saline with Tween-80
[15] = dose: 100.0 mg/kg/injection, schedule: Q04DX003 (ip), vehicle: Klucel (hydroxypropylcellulose) (HPC)
[16] = dose: 200.0 mg/kg/injection, schedule: Q04DX003 (ip), vehicle: Klucel (hydroxypropylcellulose) (HPC)
[17] = dose: 400.0 mg/kg/injection, schedule: Q04DX003 (ip), vehicle: Klucel (hydroxypropylcellulose) (HPC)

In the case of `O=C1N(c2ccccc2)C(c2ccncc2)C1(c1ccccc1)c1ccccc1` (stereo not drawn), the T/C (dose: 87.5 mg/kg/injection, schedule: Q04DX003 (ip), vehicle: gum acacia) is reported as 91 % of control, the T/C (dose: 175.0 mg/kg/injection, schedule: Q04DX003 (ip), vehicle: gum acacia) is reported as 91 % of control and the T/C (dose: 350.0 mg/kg/injection, schedule: Q04DX003 (ip), vehicle: gum acacia) is reported as 91 % of control.
In the case of `C=CCC(CCCCCCCCCCC)C(=O)O` (stereo not drawn), the T/C (dose: 100.0 mg/kg/injection, schedule: Q01DX001 (ip), vehicle: saline with Tween-80) is reported as 111 % of control, the T/C (dose: 200.0 mg/kg/injection, schedule: Q01DX001 (ip), vehicle: saline with Tween-80) is reported as 97 % of control and the T/C (dose: 400.0 mg/kg/injection, schedule: Q01DX001 (ip), vehicle: saline with Tween-80) is reported as 90 % of control.
With `COC1=CC(=O)C(C2CC(=O)c3c(O)cc(OC4OC(COC5OC(C)C(O)C(O)C5O)C(O)C(O)C4O)cc3O2)=CC1=O` (stereo not drawn) the T/C [1] was 95 % of control, the T/C [2] was 103 % of control and the T/C [3] was 97 % of control. For the same compound, the T/C [4] was 108 % of control, the T/C [5] was 88 % of control and the T/C [6] was 101 % of control.
For `NCCc1cnc2ccccc2n1`, the T/C (dose: 25.0 mg/kg/injection, schedule: Q01DX009 (ip), vehicle: saline) was 95 % of control, the T/C (dose: 50.0 mg/kg/injection, schedule: Q01DX009 (ip), vehicle: saline) was 97 % of control and the T/C [1] was 96 % of control. For the same compound, the T/C [7] was 98 % of control.
With `O=C1C=C(c2ccccc2)C(c2ccccc2)C1O` (stereo not drawn) the T/C (dose: 75.0 mg/kg/injection, schedule: Q01DX001 (ip), vehicle: other) was 102 % of control and the T/C (dose: 150.0 mg/kg/injection, schedule: Q01DX001 (ip), vehicle: other) was 97 % of control.
`Cc1ccc(S(=O)(=O)/N=S(/C)CC/S(C)=N/S(=O)(=O)c2ccc(C)cc2)cc1` (stereo not drawn) was tested, and the T/C [8] was 102 % of control, the T/C [9] was 105 % of control and the T/C [10] was 100 % of control.
`CCCC(CCC)(S(=O)(=O)CC)S(=O)(=O)CC` was tested, and the T/C [11] was 97 % of control, the T/C (dose: 200.0 mg/kg/injection, schedule: Q01DX001 (ip), vehicle: carboxymethylcellulose (CMC)) was 97 % of control and the T/C [12] was 92 % of control.
`Oc1ccccc1-c1nc2ccccc2o1` was tested, and the T/C (dose: 50.0 mg/kg/injection, schedule: Q04DX002 (ip), vehicle: saline with Tween-80) was 98 % of control, the T/C [13] was 95 % of control and the T/C [14] was 92 % of control.
For `Cc1cc(N(CCCl)CCCl)ccc1C1N(Cc2ccccc2N(C)C)CCCN1Cc1ccccc1N(C)C`, the T/C (dose: 4.0 mg/kg/injection, schedule: Q12HX018 (ip), vehicle: other) was 101 % of control, the T/C (dose: 6.0 mg/kg/injection, schedule: Q12HX018 (ip), vehicle: other) was 98 % of control and the T/C (dose: 8.0 mg/kg/injection, schedule: Q12HX018 (ip), vehicle: Klucel (hydroxypropylcellulose) (HPC)) was 102 % of control. For the same compound, the T/C (dose: 8.0 mg/kg/injection, schedule: Q12HX018 (ip), vehicle: other) was 109 % of control, the T/C (dose: 16.0 mg/kg/injection, schedule: Q12HX018 (ip), vehicle: Klucel (hydroxypropylcellulose) (HPC)) was 107 % of control and the T/C (dose: 32.0 mg/kg/injection, schedule: Q12HX018 (ip), vehicle: Klucel (hydroxypropylcellulose) (HPC)) was 105 % of control.
In the case of `Cc1ccc(S(=O)(=O)N2CCOCC2)cc1`, the T/C [15] is reported as 98 % of control, the T/C [16] is reported as 100 % of control and the T/C [17] is reported as 108 % of control.
`Clc1c(Cl)c(Cl)c(C(c2c(Cl)c(Cl)c(Cl)c(Cl)c2Cl)c2c(Cl)c(Cl)c(Cl)c(Cl)c2Cl)c(Cl)c1Cl` was tested, and the T/C (dose: 100.0 mg/kg/injection, schedule: Q01DX009 (ip), vehicle: saline with Tween-80) was 97 % of control, the T/C (dose: 200.0 mg/kg/injection, schedule: Q01DX009 (ip), vehicle: saline with Tween-80) was 93 % of control and the T/C (dose: 400.0 mg/kg/injection, schedule: Q01DX009 (ip), vehicle: saline with Tween-80) was 89 % of control.
`O=C1N(CO)C2C(N1CO)N(CO)C(=O)N2CO` (stereo not drawn) was tested, and the T/C (dose: 44.0 mg/kg/injection, schedule: Q04DX003 (ip), vehicle: saline) was 100 % of control, the T/C (dose: 66.0 mg/kg/injection, schedule: Q04DX003 (ip), vehicle: saline) was 103 % of control and the T/C [1] was 118 % of control. The T/C [7] was 103 % of control, the T/C (dose: 150.0 mg/kg/injection, schedule: Q04DX003 (ip), vehicle: saline) was 102 % of control and the T/C [3] was 113 % of control. For the same compound, the T/C (dose: 200.0 mg/kg/injection, schedule: Q04DX003 (ip), vehicle: saline) was 115 % of control, the T/C [5] was 116 % of control and the T/C (dose: 400.0 mg/kg/injection, schedule: Q04DX003 (ip), vehicle: saline) was 114 % of control.
For `CC1NC(=O)NC1=O` (stereo not drawn), the T/C [8] was 103 % of control, the T/C [15] was 98 % of control and the T/C [9] was 95 % of control. For the same compound, the T/C [16] was 98 % of control, the T/C [10] was 100 % of control and the T/C [17] was 101 % of control.
`c1ccc(Cn2ccnn2)cc1` was tested, and the T/C (dose: 50.0 mg/kg/injection, schedule: Q01DX009 (ip), vehicle: Klucel (hydroxypropylcellulose) (HPC)) was 96 % of control, the T/C [8] was 92 % of control and the T/C [9] was 115 % of control.
`CCOC(=O)N(OCc1ccccc1)P(=O)(N1CC1(C)C)N1CC1(C)C` (stereo not drawn) was tested, and the T/C (dose: 100.0 mg/kg/injection, schedule: Q04DX002 (ip), vehicle: saline) was 158 % of control and the T/C (dose: 200.0 mg/kg/injection, schedule: Q04DX002 (ip), vehicle: saline) was 153 % of control.
In the case of `COc1cc(Br)c(CC(=O)c2c[nH]c3ccc(Br)cc23)cc1OC`, the T/C (dose: 50.0 mg/kg/injection, schedule: Q01DX001 (ip), vehicle: saline) is reported as 100 % of control, the T/C (dose: 100.0 mg/kg/injection, schedule: Q01DX001 (ip), vehicle: saline) is reported as 94 % of control and the T/C (dose: 200.0 mg/kg/injection, schedule: Q01DX001 (ip), vehicle: saline) is reported as 105 % of control. The T/C (dose: 400.0 mg/kg/injection, schedule: Q01DX001 (ip), vehicle: saline) was 94 % of control.
`O=C(CNC(=O)NCc1ccccc1)N/N=C/c1cccc([N+](=O)[O-])c1` was tested, and the T/C (dose: 12.5 mg/kg/injection, schedule: Q01DX009 (ip), vehicle: saline with Tween-80) was 91 % of control, the T/C (dose: 25.0 mg/kg/injection, schedule: Q01DX009 (ip), vehicle: saline with Tween-80) was 88 % of control and the T/C (dose: 50.0 mg/kg/injection, schedule: Q01DX009 (ip), vehicle: saline with Tween-80) was 92 % of control and 88 % of control.
In the case of `CN(C)P(=O)(Oc1c(Cl)c(Cl)c(Cl)c(Cl)c1Cl)Oc1c(Cl)c(Cl)c(Cl)c(Cl)c1Cl`, the T/C [13] is reported as 107 % of control, the T/C [14] is reported as 110 % of control and the T/C (dose: 400.0 mg/kg/injection, schedule: Q04DX002 (ip), vehicle: saline with Tween-80) is reported as 93 % of control.
In the case of `Nc1nc(SCc2ccccc2)c2ncn(C3OC(CO)CC3O)c2n1` (stereo not drawn), the T/C (dose: 25.0 mg/kg/injection, schedule: Q01DX009 (ip), vehicle: other) is reported as 113 % of control, the T/C (dose: 50.0 mg/kg/injection, schedule: Q01DX001 (ip), vehicle: carboxymethylcellulose (CMC)) is reported as 110 % of control and the T/C (dose: 50.0 mg/kg/injection, schedule: Q01DX009 (ip), vehicle: other) is reported as 158 % of control. The T/C [11] was 116 % of control, the T/C (dose: 100.0 mg/kg/injection, schedule: Q01DX009 (ip), vehicle: other) was 158 % of control and the T/C [12] was 150 % of control. For the same compound, the T/C (dose: 400.0 mg/kg/injection, schedule: Q01DX009 (ip), vehicle: other) was 95 % of control and the T/C (dose: 600.0 mg/kg/injection, schedule: Q01DX001 (ip), vehicle: carboxymethylcellulose (CMC)) was 155 % of control.
For `COc1ccc(/C=N\NC(=O)c2ccncc2)cc1O`, the T/C (dose: 100.0 mg/kg/injection, schedule: Q04DX002 (ip), vehicle: Klucel (hydroxypropylcellulose) (HPC)) was 118 % of control, the T/C (dose: 200.0 mg/kg/injection, schedule: Q04DX002 (ip), vehicle: Klucel (hydroxypropylcellulose) (HPC)) was 106 % of control and the T/C (dose: 400.0 mg/kg/injection, schedule: Q04DX002 (ip), vehicle: Klucel (hydroxypropylcellulose) (HPC)) was 106 % of control.
For `O=[N+]([O-])c1ccc(C(=Nc2ccccc2)Nc2ccccc2)cc1`, the T/C [2] was 101 % of control, the T/C [4] was 98 % of control and the T/C [6] was 98 % of control.
